Reference: the supplement of paper PMC5722580

How the values were obtained:
KAI3 = assay: drug sensitivity score (viability inhibition); higher = more sensitive; settings: 72 h; IL2 2.5 ng/ml
Experimental: (§1)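 NK-cell leukemia/lymphoma cell lines (3,000 cells/well) were cultured with IL2 2.5 ng/ml in 384-well drug plates (5-8 concentrations over a 10,000-fold range) for 72 h at 37 C; viability was read with CellTiter-Glo. DSS is a normalised area under the dose-response curve; the experiment was repeated twice.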

KHYG-1 = assay: as above; settings: 72 h; IL2 2.5 ng/ml
Experimental: as §1

NK-92 = assay: as above; settings: 72 h; IL2 2.5 ng/ml
Experimental: as §1

NK-YS = assay: as above; settings: 72 h; IL2 2.5 ng/ml
Experimental: as §1

NKL = assay: as above; settings: 72 h; IL2 2.5 ng/ml
Experimental: as §1

SNK6 = assay: as above; settings: 72 h; IL2 2.5 ng/ml
Experimental: as §1

YT = assay: as above; settings: 72 h; IL2 2.5 ng/ml
Experimental: as §1

HEK293-SIE STAT3 WT = assay: drug sensitivity score (inhibition of STAT3 luciferase reporter); higher = stronger inhibition; settings: 6 h; STAT3: WT; IL6 100 ng/ml
Experimental: (§2)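 HEK293 cells with a STAT3-inducible (SIE) luciferase reporter, stably expressing WT STAT3 (IL6 100 ng/ml) or Y640F STAT3 (no IL6), were incubated 6 h with drugs in 384-well plates (5-8 concentrations over a 10,000-fold range); luciferase was read with ONE-Glo. DSS is a normalised area under the dose-response curve; values are the mean of two experiments.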

HEK293-SIE STAT3 Y640F = assay: as above; settings: 6 h; IL6 0 ng/ml
Experimental: as §2

Row | SMILES | drug sensitivity score (KAI3) [DSS] | drug sensitivity score (KHYG-1) [DSS] | drug sensitivity score (NK-92) [DSS] | drug sensitivity score (NK-YS) [DSS] | drug sensitivity score (NKL) [DSS] | drug sensitivity score (SNK6) [DSS] | drug sensitivity score (YT) [DSS] | drug sensitivity score (HEK293-SIE STAT3 WT) [DSS] | drug sensitivity score (HEK293-SIE STAT3 Y640F) [DSS]
1 | CS(=O)(=O)N1CCN(Cc2cc3nc(-c4cccc5[nH]ncc45)nc(N4CCOCC4)c3s2)CC1 [Pictilisib] | 2.33 | 3.56 | 7.68 | 6.48 | 6.67 | 1.94 | 5.04 | 4.5 | 5
2 | O=C(NC[C@H](O)CO)c1ccncc1Nc1ccc(I)cc1F [Pimasertib] | 4.56 | 15.8 | 0 | 2.47 | 11 | 0.301 | 0.0567 | 3.4 | 2.03
3 | Cc1ccc(C(=O)Nc2ccc(CN3CCN(C)CC3)c(C(F)(F)F)c2)cc1C#Cc1cnc2cccnn12 [Ponatinib] | 3.2 | 3.2 | 1.39 | 2.28 | 4.93 | 0 | 4.26 | 2.95 | 2.8
4 | C[C@]12C=CC(=O)C=C1CC[C@@H]1[C@@H]2[C@@H](O)C[C@@]2(C)[C@H]1CC[C@]2(O)C(=O)CO [Prednisolone] | 0 | 6.65 | 0 | 1.37 | 11 | 2.12 | 5.05 | 0 | 0
5 | Cn1cc(CNCC2CCN(c3ncc(C(=O)NO)cn3)CC2)c2ccccc21 [Quisinostat] | 16.1 | 20.4 | 13.8 | 22 | 22 | 13.3 | 14.2 | 2.3 | 1.9
6 | CNC(=O)c1cc(Oc2ccc(NC(=O)Nc3ccc(Cl)c(C(F)(F)F)c3)c(F)c2)ccn1 [Regorafenib] | 2.25 | 6.89 | 8.97 | 7.25 | 5.14 | 10.1 | 8.71 | 6.65 | 5.5
7 | CN(C)C[C@@H]1CCn2cc(c3ccccc32)C2=C(C(=O)NC2=O)c2cn(c3ccccc23)CCO1 [Ruboxistaurin] | 4.46 | 9.45 | 4.64 | 8.41 | 7.79 | 4.54 | 4.62 | 3.95 | 0.3
8 | N#CC[C@H](C1CCCC1)n1cc(-c2ncnc3[nH]ccc23)cn1 [Ruxolitinib] | 27.5 | 30.5 | 21.8 | 19.5 | 26.9 | 22.2 | 15.8 | 34.1 | 13.2
9 | CC(C)(C)c1cnc(CSc2cnc(NC(=O)C3CCNCC3)s2)o1 [SNS-032] | 21.1 | 20.5 | 19.2 | 30.3 | 29.4 | 10.5 | 26.1 | 21.8 | 18.9
10 | C[C@@H]1CC(=O)c2c(ccc3c2C(=O)c2cccc(O)c2C3=O)C1 [STA-21] | 2.22 | 10 | 4.92 | 9.69 | 11.5 | 2.24 | 5.75 | 10.3 | 11.5
11 | CN1CCN(CCOc2cc(OC3CCOCC3)c3c(Nc4c(Cl)ccc5c4OCO5)ncnc3c2)CC1 [Saracatinib] | 2.15 | 2.88 | 3.28 | 2.03 | 1.25 | 0.135 | 2.46 | 0 | 1.9
12 | CNC(=O)c1cc(Oc2ccc(NC(=O)Nc3ccc(Cl)c(C(F)(F)F)c3)cc2)ccn1 [Sorafenib] | 0 | 0.013 | 0.365 | 0.00415 | 0 | 4.36 | 0 | 2.1 | 1.6
13 | O=[N+]([O-])c1ccc2c(c1)S(=O)(=O)C=C2 [Stattic] | 14.3 | 13.3 | 13.2 | 12.4 | 10.7 | 14.1 | 14.6 | 8.32 | 7.37
14 | COc1cc(Nc2ncc(F)c(Nc3ccc4c(n3)NC(=O)C(C)(C)O4)n2)cc(OC)c1OC [Tamatinib] | 10.5 | 8.19 | 5.27 | 2.57 | 7.75 | 6.98 | 2.87 | 8.6 | 0
15 | CO[C@H]1C[C@@H]2CC[C@@H](C)[C@@](O)(O2)C(=O)C(=O)N2CCCC[C@H]2C(=O)O[C@H]([C@H](C)C[C@@H]2CC[C@@H](OC(=O)C(C)(CO)CO)[C@H](OC)C2)CC(=O)[C@H](C)/C=C(\C)[C@@H](O)[C@@H](OC)C(=O)[C@H](C)C[C@H](C)/C=C/C=C/C=C/1C [Temsirolimus] | 7.48 | 10.1 | 4.18 | 18.6 | 20.6 | 11.6 | 14 | 8.55 | 11.8
16 | C[C@@H]1CCN(C(=O)CC#N)C[C@@H]1N(C)c1ncnc2[nH]ccc12 [Tofacitinib] | 17.4 | 23.4 | 13.2 | 12.3 | 19.8 | 15.5 | 8.43 | 26 | 9.05
17 | CN[C@@H]1C[C@H]2O[C@@](C)([C@@H]1OC)n1c3ccccc3c3c4c(c5c6ccccc6n2c5c31)C(=O)N[C@H]4O [UCN-01] | 29.8 | 30.7 | 27.3 | 28.7 | 26.9 | 30.1 | 20.5 | 22.9 | 20.3
18 | CC1(C)CCC(CN2CCN(c3ccc(C(=O)NS(=O)(=O)c4ccc(NCC5CCOCC5)c([N+](=O)[O-])c4)c(Oc4cnc5[nH]ccc5c4)c3)CC2)=C(c2ccc(Cl)cc2)C1 [Venetoclax] | 29.2 | 9.65 | 3.59 | 10.3 | 11.9 | 24.9 | 11.6 | 0.9 | 1.5
19 | FC(F)c1nc2ccccc2n1-c1nc(N2CCOCC2)nc(N2CCOCC2)n1 [ZSTK474] | 5.42 | 2.23 | 12.8 | 9.54 | 9.94 | 7.75 | 7.9 | 2.77 | 4.7
20 | COC(=O)C[C@](O)(CCCC(C)(C)O)C(=O)O[C@@H]1C(OC)=C[C@]23CCCN2CCc2cc4c(cc2[C@H]13)OCO4 [homoharringtonine] | 33.4 | 29.6 | 31.2 | 32.5 | 32.2 | 34.6 | 34.5 | 39 | 36.6
